In patent US20190031667A1, “PESTICIDALLY ACTIVE HETEROCYCLIC DERIVATIVES WITH SULPHUR CONTAINING SUBSTITUENTS” (SYNGENTA PARTICIPATIONS AG, priority 2016, published 2019):

Columns and labels:
Format in all cases: in vivo
[1] = tested on: Euschistus heros (Neotropical Brown Stink Bug); experiment: Example B8: Activity against Euschistus heros, sprayed soybean leaves; conditions: 120 h, application rate 200 ppm, N2 nymphs, 5 days after infestation, read-out: effect in at least one of the two categories (mortality or growth inhibition)
Experimental: Example B8: Activity Against Euschistus heros (Neotropical Brown Stink Bug)
Soybean leaves on agar in 24-well microtiter plates were sprayed with aqueous test solutions prepared from 10′000 ppm DMSO stock solutions. After drying the leaves were infested with N2 nymphs. The samples were assessed for mortality and growth inhibition in comparison to untreated samples 5 days after infestation.

[2] = tested on: Diabrotica Balteata (Corn Root Worm); experiment: Example B4: Activity against Diabrotica balteata, sprayed maize sprouts; conditions: 96 h, application rate 200 ppm, L2 larvae, 4 days after infestation, read-out: effect in at least one of the two categories (mortality or growth inhibition)
Experimental: Example B4: Activity Against Diabrotica Balteata (Corn Root Worm)
Maize sprouts, placed onto an agar layer in 24-well microtiter plates were treated with aqueous test solutions prepared from 10′000 ppm DMSO stock solutions by spraying. After drying, the plates were infested with L2 larvae (6 to 10 per well). The samples were assessed for mortality and growth inhibition in comparison to untreated samples 4 days after infestation.

[3] = tested on: Spodoptera littoralis (Egyptian cotton leaf worm); experiment: Example B1: Activity against Spodoptera littoralis, sprayed cotton leaf discs; conditions: foliar, 72 h, application rate 200 ppm, L1 larvae, 3 days after infestation
Experimental: Example B1: Activity against Spodoptera littoralis (Egyptian cotton leaf worm) Cotton leaf discs were placed onto agar in 24-well microtiter plates and sprayed with aqueous test solutions prepared from 10′000 ppm DMSO stock solutions. After drying the leaf discs were infested with five L1 larvae. The samples were assessed for mortality, anti-feeding effect, and growth inhibition in comparison to untreated samples 3 days after infestation. Control of Spodoptera littoralis by a test sample is given when at least one of the categories mortality, anti-feedant effect, and growth inhibition is higher than the untreated sample.

[4] = tested on: Spodoptera littoralis (Egyptian cotton leaf worm); experiment: Example B2: Activity against Spodoptera littoralis, systemic via lettuce roots in agar; conditions: 144 h, test rate 12.5 ppm, uptake by lettuce roots from agar, 6 days after infestation, read-out: effect in at least one of the three categories (mortality, anti-feeding, or growth inhibition)
Text: Example B2: Activity against Spodoptera littoralis (Egyptian cotton leaf worm) Test compounds were applied by pipette from 10′000 ppm DMSO stock solutions into 24-well plates and mixed with agar. Lettuce seeds were placed onto the agar and the multi well plate was closed by another plate which contained also agar. After 7 days the compound was absorbed by the roots and the lettuce grew into the lid plate. The lettuce leaves were then cut off into the lid plate. Spodoptera eggs were pipetted through a plastic stencil onto a humid gel blotting paper and the lid plate was closed with it. The samples were assessed for mortality, anti-feedant effect and growth inhibition in comparison to untreated samples 6 days after infestation.

[5] = tested on: Plutella xylostella (Diamond Back Moth); experiment: Example B3: Activity against Plutella xylostella, artificial diet; conditions: 120 h, application rate 200 ppm, L2 larvae, 5 days after infestation, read-out: effect in at least one of the two categories (mortality or growth inhibition)
Experimental: Example B3: Activity Against Plutella xylostella (Diamond Back Moth)
24-well microtiter plates with artificial diet were treated with aqueous test solutions prepared from 10′000 ppm DMSO stock solutions by pipetting. After drying, the plates were infested with L2 larvae (10 to 15 per well). The samples were assessed for mortality and growth inhibition in comparison to untreated samples 5 days after infestation.

[6] = tested on: Myzus persicae (Green Peach Aphid); experiment: Example B5: Activity against Myzus persicae, sprayed sunflower leaf discs; conditions: foliar, 144 h, application rate 200 ppm, mixed-age aphids, 6 days after infestation
Experimental: Example B5: Activity Against Myzus persicae (Green Peach Aphid)
Sunflower leaf discs were placed onto agar in a 24-well microtiter plate and sprayed with aqueous test solutions prepared from 10′000 ppm DMSO stock solutions. After drying, the leaf discs were infested with an aphid population of mixed ages. The samples were assessed for mortality 6 days after infestation.

[7] = tested on: Bemisia tabaci (Cotton White Fly); experiment: Example B7: Activity against Bemisia tabaci, sprayed cotton leaf discs; conditions: foliar, 144 h, application rate 200 ppm, adult white flies, 6 days after incubation
Experimental: Example B7: Activity Against Bemisia tabaci (Cotton White Fly)
Cotton leaf discs were placed onto agar in 24-well microtiter plates and sprayed with aqueous test solutions prepared from 10′000 ppm DMSO stock solutions. After drying the leaf discs were infested with adult white flies. The samples were checked for mortality 6 days after incubation.

[8] = tested on: Myzus persicae (Green Peach Aphid); experiment: Example B6: Activity against Myzus persicae, systemic via pea seedling roots; conditions: 144 h, test rate 24 ppm, roots of infested pea seedlings in test solution, 6 days
Experimental: Example B6: Activity Against Myzus persicae (Green Peach Aphid)
Roots of pea seedlings infested with an aphid population of mixed ages were placed directly in the aqueous test solutions prepared from 10′000 DMSO stock solutions. The samples were assessed for mortality 6 days after placing seedlings in test solutions.

CCS(=O)(=O)c1ccc(-n2cncn2)nc1-n1cc2cnc(C(F)(F)F)cc2n1 [Compound P3, 2-[3-ethylsulfonyl-6-(1,2,4-triazol-1-yl)-2-pyridyl]-6-(trifluoromethyl)pyrazolo[4,3-c]pyridine]
≥ 80%: percent effect (mortality or growth inhibition) at 200 ppm [1] | percent effect (mortality or growth inhibition) at 200 ppm [2] | percent control (mortality, anti-feedant effect or growth inhibition) at 200 ppm [3] | percent effect (mortality, anti-feeding or growth inhibition) at 12.5 ppm [4] | percent effect (mortality or growth inhibition) at 200 ppm [5] | mortality at 200 ppm [6]

CCS(=O)(=O)c1ccc(-n2cccn2)nc1-n1nc2cc(C(F)(F)F)ncc2c1Cl [Compound P11]
≥ 80%: mortality at 200 ppm [7]

CCS(=O)(=O)c1ccc(NC)nc1-n1cc2cnc(C(F)(F)F)cc2n1 [Compound P15]
≥ 80%: percent effect (mortality or growth inhibition) at 200 ppm [1] | percent effect (mortality or growth inhibition) at 200 ppm [2] | percent control (mortality, anti-feedant effect or growth inhibition) at 200 ppm [3] | percent effect (mortality, anti-feeding or growth inhibition) at 12.5 ppm [4] | percent effect (mortality or growth inhibition) at 200 ppm [5] | mortality at 200 ppm [6]

CCS(=O)(=O)c1ccc(N)nc1-n1cc2cnc(C(F)(F)F)cc2n1 [Compound P16, 5-ethylsulfonyl-6-[6-(trifluoromethyl)pyrazolo[4,3-c]pyridin-2-yl]pyridin-2-amine]
≥ 80%: mortality at 24 ppm [8] | percent effect (mortality or growth inhibition) at 200 ppm [1] | percent effect (mortality or growth inhibition) at 200 ppm [2] | percent control (mortality, anti-feedant effect or growth inhibition) at 200 ppm [3] | percent effect (mortality, anti-feeding or growth inhibition) at 12.5 ppm [4] | percent effect (mortality or growth inhibition) at 200 ppm [5] | mortality at 200 ppm [6]

CCS(=O)(=O)c1cc(Cl)c(N)nc1-n1cc2cnc(C(F)(F)F)cc2n1 [Compound P19, 3-chloro-5-ethylsulfonyl-6-[6-(trifluoromethyl)pyrazolo[4,3-c]pyridin-2-yl]pyridin-2-amine]
≥ 80%: percent effect (mortality or growth inhibition) at 200 ppm [1] | percent effect (mortality or growth inhibition) at 200 ppm [2] | percent control (mortality, anti-feedant effect or growth inhibition) at 200 ppm [3] | percent effect (mortality, anti-feeding or growth inhibition) at 12.5 ppm [4] | percent effect (mortality or growth inhibition) at 200 ppm [5] | mortality at 200 ppm [6]

CCS(=O)(=O)c1ccc(-n2cnc(Cl)n2)nc1-n1cc2cnc(C(F)(F)F)cc2n1 [Compound P25]
≥ 80%: percent effect (mortality or growth inhibition) at 200 ppm [1] | percent effect (mortality or growth inhibition) at 200 ppm [2] | percent control (mortality, anti-feedant effect or growth inhibition) at 200 ppm [3] | mortality at 200 ppm [7] | percent effect (mortality or growth inhibition) at 200 ppm [5] | mortality at 200 ppm [6]
